Earlier results in patent US20060198830A1, “Ubiquinone composition and a container for its convenient transport and storage” (priority 2005, published 2006).

Settings: administration of 300-1200 mg/day of CoQ10

plasma CoQ10 concentrations: 3 to 4 µg/mL
SMILES: COC1=C(OC)C(=O)C(C/C=C(\C)CC/C=C(\C)CC/C=C(\C)CC/C=C(\C)CC/C=C(\C)CC/C=C(\C)CC/C=C(\C)CC/C=C(\C)CC/C=C(\C)CCC=C(C)C)=C(C)C1=O [CoQ10, Ubiquinone]
